Test results published in ChEMBL document CHEMBL3390836, “Mannich- and LedererManasse-based analogues of the natural product S-(+)-curcuphenol as cancer proliferation and migration inhibitors” (Medchemcomm, 2012).

Assays:
Assay type in all cases: functional
HOP-62 [1] = test: Cytotoxicity against human HOP62 cells after 48 hrs by SRB assay; details: HOP-62, 48 h
CCRF-CEM = test: Cytotoxicity against human CCRF-CEM cells after 48 hrs by SRB assay; details: read-out: LC50 (the source's name)
HL-60(TB) = test: Cytotoxicity against human HL-60(TB) cells assessed as cell growth at 10^-7 M after 48 hrs by SRB assay relative to control; details: HL-60, 48 h, read-out: Activity
[2] = Cytotoxicity against human UACC257 cells assessed as cell growth at 10^-7 M after 48 hrs by SRB assay relative to control; details: UACC-257, 48 h, read-out: Activity
[3] = Cytotoxicity against human UACC62 cells assessed as cell growth at 10^-8 M after 48 hrs by SRB assay relative to control; details: UACC-62, 48 h, read-out: Activity
786-0 = test: Cytotoxicity against human 786-0 cells assessed as cell growth at 10^-7 M after 48 hrs by SRB assay relative to control; details: 786-0, 48 h, read-out: Activity
SNB-75 = test: Cytotoxicity against human SNB75 cells assessed as cell growth at 10^-6 M after 48 hrs by SRB assay relative to control; details: SNB-75, 48 h, read-out: Activity
Malme-3M [4] = test: Cytotoxicity against human MALME-3M cells assessed as cell growth at 10^-7 M after 48 hrs by SRB assay relative to control; details: read-out: Activity
[5] = Cytotoxicity against human EKVX cells assessed as cell growth at 10^-8 M after 48 hrs by SRB assay relative to control; details: read-out: Activity
SW-620 = test: Cytotoxicity against human SW620 cells assessed as cell growth at 10^-8 M after 48 hrs by SRB assay relative to control; details: SW-620, 48 h, read-out: Activity
[6] = Cytotoxicity against human OVCAR8 cells assessed as cell growth at 10^-6 M after 48 hrs by SRB assay relative to control; details: OVCAR-8, 48 h, read-out: Activity
MDA-MB-231 = test: Cytotoxicity against human MDA-MB-231 cells assessed as cell growth at 10^-6 M after 48 hrs by SRB assay relative to control; details: MDA-MB-231, 48 h, read-out: Activity
U-251 = test: Cytotoxicity against human U251 cells after 48 hrs by SRB assay; details: U-251, 48 h
RPMI-8226 = test: Cytotoxicity against human RPMI8226 cells after 48 hrs by SRB assay; details: RPMI-8226, 48 h; for CC50: read-out: LC50 (the source's name)
[7] = Cytotoxicity against human PC3 cells after 48 hrs by SRB assay; details: PC-3, 48 h
NCI-H460 = test: Cytotoxicity against human NCI-H460 cells assessed as cell growth at 10^-8 M after 48 hrs by SRB assay relative to control; details: NCI-H460, 48 h, read-out: Activity
Malme-3M [8] = test: Cytotoxicity against human MALME-3M cells assessed as cell growth at 10^-4 M after 48 hrs by SRB assay relative to control; details: read-out: Activity
T47D = test: Cytotoxicity against human T47D cells after 48 hrs by SRB assay
SK-MEL-2 = test: Cytotoxicity against human SK-MEL-2 cells assessed as cell growth at 10^-8 M after 48 hrs by SRB assay relative to control; details: SK-MEL-2, 48 h, read-out: Activity
[9] = Cytotoxicity against human OVCAR8 cells assessed as cell growth at 10^-8 M after 48 hrs by SRB assay relative to control; details: OVCAR-8, 48 h, read-out: Activity
[10] = Cytotoxicity against human OVCAR5 cells assessed as cell growth at 10^-4 M after 48 hrs by SRB assay relative to control; details: OVCAR-5, 48 h, read-out: Activity
HT-29 = test: Cytotoxicity against human HT-29 cells assessed as cell growth at 10^-6 M after 48 hrs by SRB assay relative to control; details: HT-29, 48 h, read-out: Activity
SK-MEL-5 = test: Cytotoxicity against human SK-MEL-5 cells assessed as cell growth at 10^-4 M after 48 hrs by SRB assay relative to control; details: SK-MEL-5, 48 h, read-out: Activity
MOLT-4 = test: Cytotoxicity against human MOLT4 cells assessed as cell growth at 10^-8 M after 48 hrs by SRB assay relative to control; details: MOLT-4, 48 h, read-out: Activity
COLO 205 = test: Cytotoxicity against human COLO205 cells assessed as cell growth at 10^-8 M after 48 hrs by SRB assay relative to control; details: COLO 205, 48 h, read-out: Activity
HOP-62 [11] = test: Cytotoxicity against human HOP62 cells assessed as cell growth at 10^-8 M after 48 hrs by SRB assay relative to control; details: HOP-62, 48 h, read-out: Activity
MDA-MB-468 [12] = test: Cytotoxicity against human MDA-MB-468 cells assessed as cell growth at 10^-6 M after 48 hrs by SRB assay relative to control; details: MDA-MB-468, 48 h, read-out: Activity
MDA-MB-468 [13] = test: Cytotoxicity against human MDA-MB-468 cells after 48 hrs by SRB assay; details: MDA-MB-468, 48 h
M14 = test: Cytotoxicity against human M14 cells assessed as cell growth at 10^-8 M after 48 hrs by SRB assay relative to control; details: M14, 48 h, read-out: Activity
[14] = Cytotoxicity against human UACC257 cells assessed as cell growth at 10^-8 M after 48 hrs by SRB assay relative to control; details: UACC-257, 48 h, read-out: Activity
MDA-MB-435 = test: Cytotoxicity against human MDA-MB-435 cells assessed as cell growth at 10^-8 M after 48 hrs by SRB assay relative to control; details: MDA-MB-435, 48 h, read-out: Activity
SR [15] = test: Cytotoxicity against human SR cells assessed as cell growth at 10^-6 M after 48 hrs by SRB assay relative to control; details: read-out: Activity
BT-549 = test: Cytotoxicity against human BT549 cells assessed as cell growth at 10^-4 M after 48 hrs by SRB assay relative to control; details: BT-549, 48 h, read-out: Activity
SR [16] = test: Cytotoxicity against human SR cells assessed as cell growth at 10^-7 M after 48 hrs by SRB assay relative to control; details: read-out: Activity
[17] = Cytotoxicity against human Hs 578T cells assessed as cell growth at 10^-7 M after 48 hrs by SRB assay relative to control; details: read-out: Activity
DU-145 = test: Cytotoxicity against human DU145 cells after 48 hrs by SRB assay; details: DU-145, 48 h

COc1ccc(CCN2COc3c([C@@H](C)CCC=C(C)C)ccc(C)c3C2)cc1OC
GI50 (HOP-62 [1]): 1.86 µM | LC50 (HOP-62 [1]): 7.05 µM | TGI (HOP-62 [1]): 36.2 µM | CC50 (CCRF-CEM): > 100 µM | growth at 0.1 µM (HL-60(TB)): 99% | growth at 0.1 µM [2]: 91% | growth at 0.01 µM [3]: 95% | growth at 0.1 µM (786-0): 65% | growth at 1 µM (SNB-75): 86% | growth at 0.1 µM (Malme-3M [4]): 86% | growth at 0.01 µM [5]: 93% | growth at 0.01 µM (SW-620): 97% | growth at 1 µM [6]: 94% | growth at 1 µM (MDA-MB-231): 91% | GI50 (U-251): 1.91 µM | LC50 (U-251): 11.2 µM | TGI (U-251): 4.47 µM | GI50 (RPMI-8226): 2.09 µM | TGI (RPMI-8226): 7.67 µM | CC50 (RPMI-8226): > 100 µM | GI50 [7]: 1.95 µM | LC50 [7]: 49.3 µM | TGI [7]: 5.83 µM | growth at 0.01 µM (NCI-H460): 101% | growth at 100 µM (Malme-3M [8]): -88% | GI50 (T47D): 1.78 µM | LC50 (concentration killing 50% of cells) (T47D): 8.12 µM | TGI (T47D): 3.8 µM | growth at 0.01 µM (SK-MEL-2): 93% | growth at 0.01 µM [9]: 86% | growth at 100 µM [10]: -100% | growth at 1 µM (HT-29): 91% | growth at 100 µM (SK-MEL-5): -100% | growth at 0.01 µM (MOLT-4): 90% | growth at 0.01 µM (COLO 205): 105% | growth at 0.01 µM (HOP-62 [11]): 101% | growth at 1 µM (MDA-MB-468 [12]): 62% | GI50 (MDA-MB-468 [13]): 1.23 µM | LC50 (MDA-MB-468 [13]): 7.08 µM | TGI (MDA-MB-468 [13]): 9.95 µM | growth at 0.01 µM (M14): 95% | growth at 0.01 µM [14]: 80% | growth at 0.01 µM (MDA-MB-435): 97%

CC(C)=CCC[C@H](C)c1ccc(C)c2c1OCN(CC1CCNCC1)C2
GI50 (HOP-62 [1]): 14.8 µM | LC50 (HOP-62 [1]): 55.6 µM | TGI (HOP-62 [1]): 28.7 µM | growth at 1 µM (SR [15]): 91% | growth at 100 µM (BT-549): -49% | growth at 0.1 µM (HL-60(TB)): 91% | growth at 0.01 µM [3]: 95% | growth at 0.1 µM (786-0): 88% | growth at 0.1 µM (SR [16]): 98% | growth at 1 µM (SNB-75): 85% | growth at 0.1 µM (Malme-3M [4]): 94% | growth at 0.01 µM [5]: 104% | growth at 0.01 µM (SW-620): 96% | growth at 1 µM [6]: 100% | growth at 1 µM (MDA-MB-231): 99% | GI50 (U-251): 2.75 µM | LC50 (U-251): 31.6 µM | TGI (U-251): 7.61 µM | GI50 (RPMI-8226): 7.25 µM | TGI (RPMI-8226): 32.6 µM | CC50 (RPMI-8226): > 100 µM | GI50 [7]: 16.5 µM | LC50 [7]: > 100 µM | TGI [7]: 42.1 µM | growth at 0.1 µM [17]: 102% | growth at 0.01 µM (NCI-H460): 108% | growth at 100 µM (Malme-3M [8]): -76% | GI50 (T47D): 15.2 µM | LC50 (concentration killing 50% of cells) (T47D): 72.8 µM | TGI (T47D): 33.2 µM | growth at 0.01 µM (SK-MEL-2): 108% | growth at 0.01 µM [9]: 106% | GI50 (DU-145): 16.4 µM | LC50 (DU-145): 63.2 µM | TGI (DU-145): 32.2 µM | growth at 100 µM [10]: -90% | growth at 1 µM (HT-29): 103% | growth at 100 µM (SK-MEL-5): -85% | growth at 0.01 µM (MOLT-4): 106% | growth at 0.01 µM (COLO 205): 109% | growth at 0.01 µM (HOP-62 [11]): 104% | growth at 1 µM (MDA-MB-468 [12]): 99% | GI50 (MDA-MB-468 [13]): 5.01 µM | LC50 (MDA-MB-468 [13]): 53.1 µM | TGI (MDA-MB-468 [13]): 18.4 µM | growth at 0.01 µM (M14): 96% | growth at 0.01 µM (MDA-MB-435): 100%

CC(C)=CCC[C@H](C)c1ccc(C)c(CNCC2CCNCC2)c1O
GI50 (HOP-62 [1]): 4.12 µM | LC50 (HOP-62 [1]): 17.6 µM | TGI (HOP-62 [1]): 8.5 µM | growth at 1 µM (SR [15]): 87% | growth at 100 µM (BT-549): 22% | CC50 (CCRF-CEM): 1.64 µM | growth at 0.1 µM (HL-60(TB)): 101% | growth at 0.1 µM [2]: 95% | growth at 0.01 µM [3]: 97% | growth at 0.1 µM (786-0): 87% | growth at 0.1 µM (SR [16]): 84% | growth at 1 µM (SNB-75): 89% | growth at 0.1 µM (Malme-3M [4]): 89% | growth at 0.01 µM [5]: 99% | growth at 0.01 µM (SW-620): 100% | growth at 1 µM [6]: 100% | growth at 1 µM (MDA-MB-231): 104% | GI50 (U-251): 3.72 µM | LC50 (U-251): 15.9 µM | TGI (U-251): 7.69 µM | GI50 [7]: 6.88 µM | LC50 [7]: > 25 µM | TGI [7]: > 25 µM | growth at 0.1 µM [17]: 91% | growth at 0.01 µM (NCI-H460): 101% | growth at 100 µM (Malme-3M [8]): -62% | GI50 (T47D): 4.33 µM | LC50 (concentration killing 50% of cells) (T47D): 18.1 µM | TGI (T47D): 8.86 µM | growth at 0.01 µM (SK-MEL-2): 102% | growth at 0.01 µM [9]: 95% | GI50 (DU-145): 16.4 µM | LC50 (DU-145): > 25 µM | TGI (DU-145): > 25 µM | growth at 100 µM [10]: 27% | growth at 1 µM (HT-29): 113% | growth at 100 µM (SK-MEL-5): 100% | growth at 0.01 µM (MOLT-4): 107% | growth at 0.01 µM (COLO 205): 106% | growth at 0.01 µM (HOP-62 [11]): 96% | growth at 1 µM (MDA-MB-468 [12]): 90% | GI50 (MDA-MB-468 [13]): 3.33 µM | LC50 (MDA-MB-468 [13]): 14.1 µM | TGI (MDA-MB-468 [13]): 6.86 µM | growth at 0.01 µM [14]: 93% | growth at 0.01 µM (MDA-MB-435): 100%
